Among the data in ChEMBL document CHEMBL2346650, “Cytotoxic scalarane sesterterpenes from a Korean marine sponge Psammocinia sp” (Bioorg Med Chem Lett, 2013) are IC50 values, retold here.

One assay has as its system PANC-1. Nature of the assay: Cytotoxicity against human PANC1 cells after 72 hrs by MTT assay. The class given is functional, cell-based. The settings on record: PANC-1, 72 h. In general terms: Formazan colour is commonly taken as a measure of viable cells.
The nature of assay [1]: Cytotoxicity against human MiaPaCa cells after 72 hrs by MTT assay. The class given is functional, cell-based. The settings on record: MIA PaCa-2, 72 h.
For the next assay, the system named is ACHN. Nature of the assay: Cytotoxicity against human ACHN cells after 72 hrs by MTT assay. Format: functional, cell-based.
The test system of a further assay is CV-1. Briefly: Cytotoxicity against african green monkey CV1 cells after 72 hrs by MTT assay. The class given is cell-based. Particulars: Chlorocebus aethiops, CV-1, 72 h.
For the next assay, the system named is A498. Briefly: Cytotoxicity against human A498 cells after 72 hrs by MTT assay. Particulars: A498, 72 h. Format: functional, cell-based.

Turning to `CC1(C)CCC[C@@]2(CO)[C@H]1CC[C@]1(C)[C@@H]2CC[C@]2(C)C3=C(C(=O)O[C@H]3O)C(O)C[C@@H]12` (mixture of isomers), the IC50 is above 50 µM in the assay with PANC-1; above 50 µM in assay [1]; above 50 µM with ACHN; above 50 µM in the assay on CV-1; 40.7 µM with A498.

With `Nc1ccn([C@@H]2O[C@H](CO)[C@@H](O)C2(F)F)c(=O)n1` [GEMCITABINE], the IC50 with PANC-1 is above 50 µM; in assay [1], 17.1 µM; in the assay on CV-1, 21.9 µM.

Take `CC(=O)OC[C@]12CCCC(C)(C)[C@@H]1CC[C@@]1(C)[C@@H]3CC=C4C(=O)O[C@@H](O)[C@@H]4[C@@]3(C)CC[C@@H]12`: the IC50 in the assay with PANC-1 was 1.3 µM; in assay [1], 1.2 µM; in the assay with ACHN it was 1.3 µM; in the assay on CV-1 it was 2.1 µM; in the assay on A498, 1.3 µM.

As to `CC1(C)CCC[C@]2(C)[C@H]3CC[C@@]4(C)[C@@H](CC=C(C=O)[C@@H]4C=O)[C@]3(C)CC[C@@H]12` [12-DEACETOXYSCALARADIAL], the IC50 with PANC-1 was 38.8 µM; in assay [1], 45.9 µM; in the assay on ACHN, above 50 µM; in the assay with CV-1 it was 45 µM; in the assay with A498 it was above 50 µM.

In the case of `CCN(CC)CCNC(=O)c1c(C)[nH]c(/C=C2\C(=O)Nc3ccc(F)cc32)c1C` [SUNITINIB], the IC50 amounted to 5.7 µM with ACHN and 4.3 µM in the assay on A498.

On to `CC(=O)OC[C@]12CCCC(C)(C)[C@@H]1CC[C@]1(C)[C@@H]2C[C@@H](OC(C)=O)[C@]2(C)c3cocc3CC[C@@H]12`, for which the IC50 in the assay on PANC-1 is 48 µM; in assay [1], 31.1 µM; with ACHN, above 50 µM; with CV-1 it was above 50 µM; in the assay with A498, above 50 µM.

Regarding `CC1(C)CCC[C@@]2(CO)[C@H]1CC[C@@]1(C)[C@@H]3CC=C(C=O)[C@H](C=O)[C@@]3(C)CC[C@@H]12` [12-DEACETOXY-23-HYDROXYSCALARADIAL], the IC50 in the assay with PANC-1 is 34.3 µM; in assay [1], 31.1 µM; with ACHN, above 50 µM; with CV-1 it was above 50 µM; in the assay on A498 it was above 50 µM.

As to `CC(=O)OC[C@]12CCCC(C)(C)[C@@H]1CC[C@@]1(C)[C@@H]3C[C@H](OC(C)=O)C4=CO[C@@H](OC(C)=O)[C@@H]4[C@@]3(C)CC[C@@H]12`, the IC50 in the assay on PANC-1 was 1.6 µM; in assay [1] it was 2.8 µM; in the assay with ACHN it was 5.8 µM; in the assay on CV-1, 3 µM; in the assay on A498, 5.7 µM.

Regarding `CC(=O)O[C@@H]1OC=C2[C@@H](OC(C)=O)C[C@@H]3[C@](C)(CC[C@H]4[C@@]3(C)CC[C@H]3C(C)(C)CCC[C@@]34CO)[C@H]21`, the IC50 in the assay on PANC-1 worked out at 0.4 µM; in assay [1] it was 0.7 µM; with ACHN, 0.4 µM; in the assay with CV-1, 0.8 µM; in the assay with A498, 0.7 µM.

On to `CO[C@H]1C[C@@H]2CC[C@@H](C)[C@@](O)(O2)C(=O)C(=O)N2CCCC[C@H]2C(=O)O[C@H]([C@H](C)C[C@@H]2CC[C@@H](OC(=O)C(C)(CO)CO)[C@H](OC)C2)CC(=O)[C@H](C)/C=C(\C)[C@@H](O)[C@@H](OC)C(=O)[C@H](C)C[C@H](C)/C=C/C=C/C=C/1C` [TEMSIROLIMUS], for which the IC50 in the assay on A498 came out at 34.3 µM.

The term IC50 denotes the concentration that inhibits the measured activity by half.
